Source: ChEMBL document CHEMBL5143714, “Discovery of BMS-986339, a Pharmacologically Differentiated Farnesoid X Receptor Agonist for the Treatment of Nonalcoholic Steatohepatitis” (J Med Chem, 2022)
pEC50, pIC50: −log10 of the molar value.

Columns and labels:
Cytochrome P450 2C19 = Cytochrome P450 2C19 (Homo sapiens, UniProt P33261); test: Inhibition of CYP2C19 in human liver microsomes using fluorogenic substrate preincubated for 15 min followed by NADPH addition measured after 2 hrs by fluorescence based assay; assay type: ADME, Microsome
Cytochrome P450 2C19, sequence (P33261 whole entry): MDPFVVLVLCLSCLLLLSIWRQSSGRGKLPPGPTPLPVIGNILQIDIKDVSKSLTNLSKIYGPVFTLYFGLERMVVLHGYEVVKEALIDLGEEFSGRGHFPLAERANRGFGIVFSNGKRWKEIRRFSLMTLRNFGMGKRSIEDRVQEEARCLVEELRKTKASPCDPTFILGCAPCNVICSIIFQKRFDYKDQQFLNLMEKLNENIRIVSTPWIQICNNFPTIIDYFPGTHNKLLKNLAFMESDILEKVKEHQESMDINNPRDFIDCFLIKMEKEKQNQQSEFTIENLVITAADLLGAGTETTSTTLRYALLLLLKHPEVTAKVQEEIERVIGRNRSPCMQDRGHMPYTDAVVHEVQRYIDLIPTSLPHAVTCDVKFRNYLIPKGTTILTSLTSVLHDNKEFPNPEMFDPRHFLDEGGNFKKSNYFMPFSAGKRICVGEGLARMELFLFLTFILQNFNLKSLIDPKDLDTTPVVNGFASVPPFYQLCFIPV

[1] = Clearance in Sprague-Dawley rat at 1 mg/kg, iv; assay type: ADME, organism-based; conditions: in vivo
[2] = Genotoxicity in Salmonella typhimurium by Ames test; assay type: toxicity; conditions: salmonella enterica subsp. enterica serovar typhimurium
[3] = Oral bioavailability in C57BL6 mouse at 5 mg/kg; assay type: ADME, organism-based; conditions: in vivo
[4] = target: T1, Nuclear receptor subfamily 1 group I member 2 (Homo sapiens, UniProt O75469); test: Transactivation of PXR (unknown origin) relative to refampicin; assay type: ADME
T1 sequence (O75469 whole entry): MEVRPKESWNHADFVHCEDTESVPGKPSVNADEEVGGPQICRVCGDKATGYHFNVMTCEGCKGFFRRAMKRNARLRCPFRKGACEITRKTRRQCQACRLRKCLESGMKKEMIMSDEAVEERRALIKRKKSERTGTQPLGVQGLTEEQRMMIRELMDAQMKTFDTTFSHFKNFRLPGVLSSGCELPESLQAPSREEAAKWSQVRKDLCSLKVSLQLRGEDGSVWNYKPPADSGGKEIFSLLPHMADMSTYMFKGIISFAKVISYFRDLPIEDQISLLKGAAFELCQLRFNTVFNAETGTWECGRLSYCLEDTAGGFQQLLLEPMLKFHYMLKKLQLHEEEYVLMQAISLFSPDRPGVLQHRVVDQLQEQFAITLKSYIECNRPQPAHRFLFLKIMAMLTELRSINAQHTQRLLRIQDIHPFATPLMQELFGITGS

Cytochrome P450 2D6 = Cytochrome P450 2D6 (Homo sapiens, UniProt P10635); test: Inhibition of CYP2D6 in human liver microsomes using fluorogenic substrate preincubated for 15 min followed by NADPH addition measured after 2 hrs by fluorescence based assay; assay type: ADME, Microsome
Cytochrome P450 2D6, sequence (P10635 whole entry): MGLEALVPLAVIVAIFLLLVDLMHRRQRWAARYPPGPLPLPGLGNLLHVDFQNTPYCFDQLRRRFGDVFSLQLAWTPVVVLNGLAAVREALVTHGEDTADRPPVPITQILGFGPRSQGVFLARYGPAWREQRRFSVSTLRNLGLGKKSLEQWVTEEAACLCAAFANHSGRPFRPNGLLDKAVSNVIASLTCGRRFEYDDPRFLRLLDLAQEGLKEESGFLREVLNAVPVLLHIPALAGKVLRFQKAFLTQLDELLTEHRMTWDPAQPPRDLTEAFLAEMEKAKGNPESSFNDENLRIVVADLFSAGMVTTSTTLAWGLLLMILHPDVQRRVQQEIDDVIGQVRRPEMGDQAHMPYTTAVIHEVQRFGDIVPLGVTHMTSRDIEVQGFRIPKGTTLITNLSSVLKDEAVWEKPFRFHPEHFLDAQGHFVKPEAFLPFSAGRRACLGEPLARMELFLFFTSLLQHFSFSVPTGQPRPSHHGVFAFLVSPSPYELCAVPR

Cytochrome P450 2C9 = Cytochrome P450 2C9 (Homo sapiens, UniProt P11712); test: Inhibition of recombinant CYP2C9 (unknown origin) using fluorogenic substrate preincubated for 15 min followed by NADPH addition measured after 2 hrs by fluorescence method; assay type: ADME
Cytochrome P450 2C9, sequence (P11712 whole entry): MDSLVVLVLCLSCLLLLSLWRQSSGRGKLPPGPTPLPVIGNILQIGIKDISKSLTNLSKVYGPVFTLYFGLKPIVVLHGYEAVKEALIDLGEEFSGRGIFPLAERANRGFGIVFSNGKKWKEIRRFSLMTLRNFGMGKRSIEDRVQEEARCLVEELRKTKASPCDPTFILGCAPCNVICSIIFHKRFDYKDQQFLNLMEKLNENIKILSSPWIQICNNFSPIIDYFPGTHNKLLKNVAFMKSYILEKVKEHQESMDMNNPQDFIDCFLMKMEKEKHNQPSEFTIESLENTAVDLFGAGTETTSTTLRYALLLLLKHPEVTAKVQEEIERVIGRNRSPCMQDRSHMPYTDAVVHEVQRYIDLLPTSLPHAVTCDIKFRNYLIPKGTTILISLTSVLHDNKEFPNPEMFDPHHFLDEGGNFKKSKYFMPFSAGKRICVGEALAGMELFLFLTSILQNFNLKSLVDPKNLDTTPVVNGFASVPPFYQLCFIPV

[5] = Metabolic stability in rat liver microsome assessed as parent compound remaining at […] measured after 10 mins; assay type: ADME; conditions: liver microsomes, read-out: Stability
[6] = Metabolic stability in human liver microsome assessed as parent compound remaining at […] measured after 10 mins; assay type: ADME; conditions: liver microsomes, read-out: Stability
Mus musculus = test: Antifibrotic activity against bile duct ligation-induced liver cholestasis C57BL/6NTac mouse model assessed as reduction in collagen level administered orally as single dose for 9 days and measured after 24 hrs post-last dose by picrosirius red staining method; assay type: functional, organism-based; conditions: dose 0.3-10 mg/kg, route po, time 9.0 day, DDE = dose-dependent effect
[7] = target: Voltage-gated inwardly rectifying potassium channel KCNH2 (Homo sapiens, UniProt Q12809); test: Inhibition of hERG by patch clamp assay; assay type: toxicity
Voltage-gated inwardly rectifying potassium channel KCNH2, sequence (Q12809 whole entry): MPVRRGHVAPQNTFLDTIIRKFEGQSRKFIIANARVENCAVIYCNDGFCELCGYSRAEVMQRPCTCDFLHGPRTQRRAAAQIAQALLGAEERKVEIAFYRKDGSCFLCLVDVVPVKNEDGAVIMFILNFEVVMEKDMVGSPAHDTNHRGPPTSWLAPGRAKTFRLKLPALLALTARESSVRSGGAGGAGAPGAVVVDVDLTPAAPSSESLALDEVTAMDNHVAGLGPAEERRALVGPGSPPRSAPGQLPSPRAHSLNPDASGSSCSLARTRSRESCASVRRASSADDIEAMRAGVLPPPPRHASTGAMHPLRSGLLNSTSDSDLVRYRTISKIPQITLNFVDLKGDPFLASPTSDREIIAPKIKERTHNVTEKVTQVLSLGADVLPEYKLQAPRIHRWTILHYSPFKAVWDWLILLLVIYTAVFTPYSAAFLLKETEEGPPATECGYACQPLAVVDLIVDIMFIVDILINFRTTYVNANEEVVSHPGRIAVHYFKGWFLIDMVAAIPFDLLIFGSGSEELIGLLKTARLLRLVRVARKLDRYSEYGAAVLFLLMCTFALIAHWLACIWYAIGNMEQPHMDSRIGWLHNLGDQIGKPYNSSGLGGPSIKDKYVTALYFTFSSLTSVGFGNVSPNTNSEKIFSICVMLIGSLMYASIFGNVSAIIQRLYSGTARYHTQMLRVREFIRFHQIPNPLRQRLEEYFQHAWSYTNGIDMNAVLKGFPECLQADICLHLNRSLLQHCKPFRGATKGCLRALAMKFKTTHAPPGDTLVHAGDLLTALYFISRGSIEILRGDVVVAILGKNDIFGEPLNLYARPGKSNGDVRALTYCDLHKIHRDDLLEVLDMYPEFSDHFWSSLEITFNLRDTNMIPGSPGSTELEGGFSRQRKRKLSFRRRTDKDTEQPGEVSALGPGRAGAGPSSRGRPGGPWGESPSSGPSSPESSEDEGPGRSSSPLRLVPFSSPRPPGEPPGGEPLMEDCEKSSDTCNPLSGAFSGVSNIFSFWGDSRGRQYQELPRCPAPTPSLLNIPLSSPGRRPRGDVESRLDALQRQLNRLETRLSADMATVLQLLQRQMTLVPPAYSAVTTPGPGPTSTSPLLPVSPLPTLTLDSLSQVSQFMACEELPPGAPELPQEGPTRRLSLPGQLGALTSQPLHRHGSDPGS

[8] = system: Bile acid receptor (Homo sapiens); test: Agonist activity at human FXR expressed in HEK293 cells coexpressing human FGF19 incubated for 24 hrs by ELISA analysis relative to GW2064; conditions: filed as agonist
[9] = Oral bioavailability in Sprague-Dawley rat at 2 mg/kg; assay type: ADME, organism-based; conditions: in vivo
[10] = target: T1, Nuclear receptor subfamily 1 group I member 2; test: Transactivation of PXR (unknown origin); assay type: ADME
Bile acid receptor = target: T2, Bile acid receptor (Homo sapiens, UniProt Q96RI1); test: Agonist activity at Gal4-fused human FXR in HEK293 cells incubated for 15 min by luciferase reporter assay; assay type: cell-based
T2 sequence (Q96RI1 whole entry): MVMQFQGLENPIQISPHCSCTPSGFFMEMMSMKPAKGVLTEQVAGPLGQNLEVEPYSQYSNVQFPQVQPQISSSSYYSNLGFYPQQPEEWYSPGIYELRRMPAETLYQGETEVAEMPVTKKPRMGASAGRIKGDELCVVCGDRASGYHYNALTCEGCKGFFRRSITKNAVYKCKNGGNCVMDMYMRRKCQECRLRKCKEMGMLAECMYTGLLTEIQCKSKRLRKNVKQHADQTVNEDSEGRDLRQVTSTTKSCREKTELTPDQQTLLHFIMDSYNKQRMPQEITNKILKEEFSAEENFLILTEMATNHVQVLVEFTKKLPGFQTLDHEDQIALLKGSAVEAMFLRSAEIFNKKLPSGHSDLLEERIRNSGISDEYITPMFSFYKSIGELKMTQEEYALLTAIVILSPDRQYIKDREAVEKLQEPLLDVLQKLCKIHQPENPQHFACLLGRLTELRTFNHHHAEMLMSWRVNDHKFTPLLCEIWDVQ

[11] = target: T3, Bile acid receptor (Mus musculus) (UniProt Q60641); test: Agonist activity at LBD-fused mouse FXR in HEK293 cells incubated for 30 min by envision plate reader method relative to GW2064; assay type: cell-based; conditions: filed as agonist
T3 sequence (whole entry): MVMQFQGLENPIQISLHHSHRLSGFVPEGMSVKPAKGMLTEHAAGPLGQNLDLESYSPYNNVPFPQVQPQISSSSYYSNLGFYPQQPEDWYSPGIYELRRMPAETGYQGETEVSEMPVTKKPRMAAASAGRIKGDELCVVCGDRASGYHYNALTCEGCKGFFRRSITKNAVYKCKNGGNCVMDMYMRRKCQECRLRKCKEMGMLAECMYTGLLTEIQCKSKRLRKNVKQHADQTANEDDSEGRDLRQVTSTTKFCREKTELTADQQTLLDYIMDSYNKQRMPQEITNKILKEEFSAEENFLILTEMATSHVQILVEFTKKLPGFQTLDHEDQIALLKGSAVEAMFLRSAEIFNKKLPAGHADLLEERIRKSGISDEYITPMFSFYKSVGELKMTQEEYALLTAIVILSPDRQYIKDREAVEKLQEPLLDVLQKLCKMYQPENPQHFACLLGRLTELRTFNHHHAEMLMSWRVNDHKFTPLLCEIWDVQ

[12] = Volume of distribution at steady state in Sprague-Dawley rat at 1 mg/kg, iv; assay type: ADME, organism-based; conditions: in vivo, read-out: Vdss

With CC(C)(O)c1ccc(-c2cccc(N(CC34CCC(c5noc(C(C)(C)F)n5)(CC3)CC4)C(=O)[C@H]3C[C@](O)(C(F)(F)F)C3)c2)cc1 the pIC50 (Cytochrome P450 2C19) was under 4.70, the clearance [1] was 4 mL/min/kg and the Activity [2] was “Non-Toxic”. The bioavailability [3] was 69%, the Emax [4] was 11% and the pIC50 (Cytochrome P450 2D6) was under 4.70. It also gave a pIC50 (Cytochrome P450 2C9) of 5.30, a remaining at 10 min [5] of 93% and a remaining at 10 min [6] of 100%. The Activity (Mus musculus) was “Dde”, the pIC50 [7] was 5.35 and the Emax [8] was 89%. For the same compound, the bioavailability [9] was 40%, the pEC50 [10] was 4.30 and the pEC50 (Bile acid receptor) was 7.47. For the same compound, the Emax [11] was 601% and the Vd [12] was 5.2 L/kg.
